# Source: article PMC9861175, “Diversity and Biosynthetic Potential of Fungi Isolated from St. John’s Island, Singapore” (International Journal of Molecular Sciences, 2023)
# Like-named read-outs stand apart in the source and are kept apart here.
# Columns and labels:
# [1] = system: Staphylococcus aureus ATCC 25923; assay: Antibacterial broth microdilution growth inhibition (OD600) against S. aureus; format: cell-based; conditions: for IC50: read-out: IC50 SA
# Experimental: (§1) Dried extracts were resuspended in MeOH to obtain 20 mg/mL sample concentration followed by sonication for complete solubilizing. Ten microliters (10 µL) of the extracts per well were added to 96-well plates followed by drying via centrifugal vacuum concentrator. Upon drying, 100 µL of 10% DMSO was added to each well to obtain a sample concentration of 2 mg/mL. Ten microliters (10 µL) were subsequently used for the antimicrobial bioassays where 90 µL of the respective microbial cultures were added to each sample, leading to a final extract concentration of 200 µg/mL. For preliminary screening, extracts from all 30 fungi were evaluated for antimicrobial activities using the highest concentration of 200 µg/mL.
# (§2) For the antibacterial bioassays, the test microorganisms S. aureus, Methicillin-resistant S. aureus (MRSA) and E. coli were plated on Mueller-Hinton II agar (Merck, Germany) and incubated overnight at 37 °C. Colonies were added to a glass tube containing 0.85% saline solution until the turbidity was equivalent to 0.5 McFarland Standard (approximate cell density 1.5 × 10^8 CFU/mL). Cell suspensions were then diluted in MH2 liquid media to obtain a final cell density of 5 × 10^5 CFU/mL. Ninety microliters (90 µL) of cell suspensions were added to 10 µL of extracts in the 96-well bioassay plates and incubated at 37 °C for 20 h. For each extract tested, three replicates were used. The optical density (OD) of each well was measured using a Hidex Sense microplate reader (Hidex, Finland) at 600 nm. Percentage growth inhibition was calculated according to the following formula with the quality of the bioassay assessed based on the Z-prime analysis. A Z-prime of ≥0.7 indicates the robustness of the high throughput screening data. Gentamicin was used as the standard control against S. aureus and E. coli while vancomycin was used as the standard control in the MRSA assay.
# [2] = system: Methicillin-resistant Staphylococcus aureus ATCC 33591; assay: Antibacterial broth microdilution growth inhibition (OD600) against MRSA; format: cell-based; conditions: 20 h
# Experimental: as §1, §2
# [3] = system: Escherichia coli ATCC 25922; assay: Antibacterial broth microdilution growth inhibition (OD600) against E. coli; format: cell-based; conditions: read-out: IC50 EC
# Experimental: as §1, §2
# C. albicans ATCC 10231 = assay: Antifungal growth inhibition (OD) screen against C. albicans; format: cell-based; conditions: Candida albicans, read-out: IC50 CA
# Experimental: as §1
# For the C. albicans screen, a single colony from freshly streaked C. albicans on Sabouraud dextrose agar (SDA) was inoculated into 25-mL of Sabouraud liquid medium (SLM) and incubated at 35 °C with shaking at 150 rpm for 18 hrs. Subsequently, 1% of the culture (250 µL) was prepared with SLM and incubated at 35 °C with shaking for 6 h. OD600 was monitored until it reached approximately 0.8. Cell density (D) of the culture was calculated using the following equation: D = [(30 × OD600) − 8] × 10^6 CFU/mL. Final cell densities were adjusted to 2.5 × 10^5 CFU/mL and inoculated as 90 µL suspensions into 96-well plates. Similar to the antibacterial assays, upon addition of 10 µL of extracts to the cell suspensions, the plates were incubated at 37 °C for 20 h prior to OD readings. For each extract tested, three technical replicates were used. Amphotericin B was used as the antifungal standard control in C. albicans screen.
# [4] = system: A549 human lung carcinoma cells ATCC CCL-185; assay: Cytotoxicity assay (PrestoBlue, 72 h) on A549 cells; format: cell-based; conditions: for IC50: Homo sapiens, read-out: IC50 A549
# Experimental: The cytotoxic effect of the isolated compounds on the A549 human lung carcinoma cell line was determined as described previously. A549 cells at a concentration of 3.3 × 10^4 cells/mL in Dulbecco’s Modified Eagle Medium (DMEM, Gibco, Life Technologies, Bleiswijk, The Netherlands) were treated with isolated compounds at concentrations ranging from 0.1 μM to 200 μM and incubated for 72 h at 37 °C in 5% CO2 and 95% relative humidity. Cytotoxic effect of the compounds was measured after the addition of PrestoBlue™ cell viability reagent (Thermo Fisher Scientific, USA) and incubation for 2 h by reading of the plates’ fluorescence at an excitation wavelength of 560 nm and emission wavelength of 590 nm using the Tecan Infinite M1000 Pro reader. Puromycin served as the standard control.
# [5] = system: L5178Y mouse lymphoma cell line; design: method as in doi:10.1016/j.phytol.2014.12.010; conditions: cited from earlier work
# [6] = mycotoxins associated with food spoilage; cited from earlier work
# human hepatoma cell line = conditions: cited from earlier work
# [7] = Staphylococcus aureus, ATCC25923, 20 h, isolated compounds, S. aureus ATCC 25923, 20 h, 37 °C
# [8] = Staphylococcus aureus, read-out: IC50 MRSA, isolated compounds, MRSA ATCC 33591, 37 °C
# [9] = ATCC25922, isolated compounds, E. coli ATCC 25922, 20 h, 37 °C
# [10] = ATCC10231, isolated compounds, C. albicans ATCC 10231, 20 h
# [11] = Staphylococcus aureus, read-out: IC50 MRSA
# [12] = Staphylococcus aureus, ATCC25923, isolated compounds, S. aureus ATCC 25923, 20 h, 37 °C
# [13] = Staphylococcus aureus, isolated compounds, MRSA ATCC 33591, 37 °C, read-out: IC50 MRSA
# [14] = isolated compounds, A549 cells, 72 h
Molecule,"IC50 [3, 9] [µM]",IC50 (C. albicans ATCC 10231; [10]) [µM],"IC50 ([4]; A549, 72 h) [µM]","IC50 [1, 12] [µM]","IC50 [4, 14] [µM]",also measured
COc1ccc(C2SSC34CC5(O)C(O)C=CC(O)C5ON3C(=O)C2N(C)C4=O)c(O)c1OC (stereo not shown) [Pretrichodermamide C],> 200,> 200,> 200,,,"IC50 [1, 7]: < 50 µM; IC50 ([1]; isolated compounds, S. aureus ATCC 25923, 20 h, 37 °C): 34.7 µM; IC50 [2, 8]: < 50 µM; IC50 ([2]; read-out: IC50 MRSA, isolated compounds, MRSA ATCC 33591, 37 °C): 41.6 µM; cytotoxic activity against A549 cells (in words) ([4]; isolated compounds): no cytotoxic activity; activity against the L5178Y mouse lymphoma cell line [5]: inactive"
COc1cc2cc3c(c(O)c2c(O)c1-c1c(OC)cc2cc4c(c(O)c2c1O)C(=O)O[C@H](C)C4)C(=O)O[C@H](C)C3 [Vioxanthin],,,77.1,,,"IC50 ([1]; Staphylococcus aureus, ATCC25923, 20 h): 3 µM; IC50 [2, 11]: 1.6 µM; IC50 ([3]; ATCC25922, 20 h): > 200 µM; IC50 (C. albicans ATCC 10231; ATCC10231, 20 h): 36.4 µM; liver and kidney damage in animals [6]: known to cause liver and kidney damage in animals"
"CN[C@H](CC(C)C)C(=O)N[C@H]1C(=O)N[C@@H](CC(N)=O)C(=O)N[C@H]2C(=O)N[C@H]3C(=O)N[C@H](C(=O)N[C@H](C(=O)O)c4cc(O)cc(O)c4-c4cc3ccc4O)[C@H](O)c3ccc(c(Cl)c3)Oc3cc2cc(c3O[C@@H]2O[C@H](CO)[C@@H](O)[C@H](O)[C@H]2O[C@H]2C[C@](C)(N)[C@H](O)[C@H](C)O2)Oc2ccc(cc2Cl)[C@H]1O [Vancomycin, reference compound]",,,,,,"IC50 [2, 11]: 1.5 µM"
Penilumamide E,,,,,,cytotoxicity activity against a human hepatoma cell line (human hepatoma cell line): weak cytotoxicity activity
COC(=O)c1ccccc1NC(=O)C(CCSC)NC(=O)c1cnc2c(n1)c(=O)n(C)c(=O)n2C (stereo not shown) [Penilumamide B],> 200,> 200,,> 200,113,"IC50 [2, 13]: > 200 µM"
COC1=C(C2=C(OC)C(=O)c3cc4c(c(O)c3C2=O)C(=O)OC(C)C4)C(=O)c2c(cc3c(c2O)C(=O)OC(C)C3)C1=O (stereo not shown) [Xanthomegnin],> 200,18.6,65.6,,,"IC50 [1, 7]: 19.2 µM; IC50 [2, 8]: 35.3 µM; liver and kidney damage in animals [6]: known to cause liver and kidney damage in animals"
"C[C@@H]1[C@H](O)[C@@H](C)/C=C/C=C/C=C/C=C/C=C/C=C/C=C/[C@H](O[C@@H]2O[C@H](C)[C@@H](O)[C@H](N)[C@@H]2O)C[C@@H]2O[C@](O)(C[C@@H](O)C[C@@H](O)[C@H](O)CC[C@@H](O)C[C@@H](O)CC(=O)O[C@H]1C)C[C@H](O)[C@H]2C(=O)O [Amphotericin B, reference compound]",,0.14,,,,
"COc1ccc(C[C@H](N)C(=O)N[C@H]2[C@@H](O)[C@H](n3cnc4c(N(C)C)ncnc43)O[C@@H]2CO)cc1 [Puromycin, reference compound]",,,,,0.25,
COC1=C(c2c(OC)cc3cc4c(c(O)c3c2O)C(=O)OC(C)C4)C(=O)c2c(cc3c(c2O)C(=O)OC(C)C3)C1=O (stereo not shown) [Viomellein],> 100,17.9,42,,,"IC50 [1, 7]: 3.2 µM; IC50 [2, 8]: 2.9 µM; liver and kidney damage in animals [6]: known to cause liver and kidney damage in animals"
"CNC(C)C1CCC(N)C(OC2C(N)CC(N)C(OC3OCC(C)(O)C(NC)C3O)C2O)O1 (stereo not shown) [Gentamicin, reference compound]",0.67,,,0.22,,
CC(NC(=O)c1cnc2c(n1)c(=O)n(C)c(=O)n2C)C(=O)Nc1ccccc1C(N)=O (stereo not shown) [Penilumamide D],> 200,> 200,,> 200,> 200,"IC50 [2, 13]: > 200 µM; cytotoxicity activity against a human hepatoma cell line (human hepatoma cell line): weak cytotoxicity activity"
COC(=O)c1ccccc1NC(=O)C(CC[S+](C)[O-])NC(=O)c1cnc2c(=O)n(C)c(=O)n(C)c2n1 (stereo not shown) [Penilumamide A],> 200,> 200,,88,100,"antimicrobial activity against S. aureus (in words) ([1]; isolated compounds): weak; IC50 [2, 13]: > 200 µM; cytotoxic activity against A549 cells (in words) ([4]; isolated compounds): weak; cytotoxicity activity against a human hepatoma cell line (human hepatoma cell line): weak cytotoxicity activity"
